Entries after “also recorded” stand apart in the source; their conditions may differ. Structures can show the parent of a compound that is named as a salt. Where two headings read alike, the source gives them in different places.
Key:
[1] = target: T1, recombinant human arginase 1 (Homo sapiens, UniProt P05089); experiment: Arginase 1 inhibition, UPLC-MS measurement of ARG to ORN conversion in HEK293T cell lysate; conditions: for remaining activity at 0.1 µM / remaining activity at 1 µM / remaining activity at 10 µM / remaining activity at 100 µM / remaining activity at 1000 µM / remaining activity at 10000 µM: read-out: % of control activity at the corresponding [Inhibitor] ± SE, arginase 1; for remaining activity at 0.1 µM / remaining activity at 1 µM / remaining activity at 10 µM / remaining activity at 100 µM / remaining activity at 1000 µM / remaining activity at 10000 µM / % of control activity at the corresponding [Inhibitor] ± SE: mean of two experiments; for arginase 1 inhibitor assessment in words: at the concentrations tested, both ARG concentrations; for remaining activity at 10000 µM: inhibitor 10,000 µM; for % of control activity at the corresponding [Inhibitor] ± SE: arginase 1;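 for all read-outs here: arginase 1–expressing HEK293T lysate at 0.05 mg/mL in pH 7.4 phosphate buffer, inhibitor preincubated 5 min with enzyme, then reaction started by adding ARG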
T1 sequence (P05089 1-322): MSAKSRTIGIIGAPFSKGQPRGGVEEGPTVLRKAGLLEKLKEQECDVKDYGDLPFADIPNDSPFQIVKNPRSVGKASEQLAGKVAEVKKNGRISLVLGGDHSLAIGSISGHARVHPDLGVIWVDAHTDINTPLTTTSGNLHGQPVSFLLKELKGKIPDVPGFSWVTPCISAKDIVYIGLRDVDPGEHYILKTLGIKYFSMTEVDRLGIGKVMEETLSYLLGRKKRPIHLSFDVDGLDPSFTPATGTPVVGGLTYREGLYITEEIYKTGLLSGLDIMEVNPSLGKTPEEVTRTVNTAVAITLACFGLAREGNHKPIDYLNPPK
Protocol: (§1) Following a 5-min pre-equilibration period reactions were initiated by the addition of the cell lysate solution in 0.05 M phosphate buffer to a pre-equilibrated aqueous solution of the substrate (ARG).
(§2) The samples were vortex mixed (20 sec) and cooled in an ice/water bath for 10 min prior to centrifugation (5 min, 18,000 × g, room temperature) to precipitate the proteins. An aliquot of the supernatant layer was diluted with a 7:3 mobile phase A/mobile phase B solution into glass UPLC vial inserts.
(§3) Incubation mixtures comprised of HEK293T cell lysate expressing arginase 1 (0.05 mg/mL) or arginase 2 (0.1 mg/mL), phosphate buffer (0.05 M, pH 7.4), inhibitor (0, 0.1, 1, 10, 100, 1000 or 10000 μM) and ARG (0.1, 2 or 3 mM). Following a 5-min pre-incubation of the potential inhibitor with arginase 1 or arginase 2, reactions were initiated by the addition of a pre-equilibrated solution of the substrate ARG.
Ki values were derived from fitting the competitive inhibition equation to experimental data. Ki data are the mean of three singlicate experiments.

[2] = target: T2, recombinant human arginase 2 (Homo sapiens, UniProt P78540); experiment: Arginase 2 inhibition, UPLC-MS measurement of ARG to ORN conversion in HEK293T cell lysate; conditions: for remaining activity at 0.1 µM / remaining activity at 1 µM / remaining activity at 10 µM / remaining activity at 100 µM / remaining activity at 1000 µM / remaining activity at 10000 µM: read-out: % of control activity at the corresponding [Inhibitor] ± SE, arginase 2; for remaining activity at 0.1 µM / remaining activity at 1 µM / remaining activity at 10 µM / remaining activity at 100 µM / remaining activity at 1000 µM / remaining activity at 10000 µM / % of control activity at the corresponding [Inhibitor] ± SE: mean of two experiments; for arginase 2 inhibitor assessment in words: at the concentrations tested; for remaining activity at 10000 µM: inhibitor 10,000 µM; for % of control activity at the corresponding [Inhibitor] ± SE: arginase 2;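 for all read-outs here: HEK293T lysate carrying arginase 2 at 0.1 mg/mL in 0.05 M phosphate buffer pH 7.4, inhibitor preincubated with enzyme 5 min before ARG addition started the reaction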
T2 sequence (P78540 23-354): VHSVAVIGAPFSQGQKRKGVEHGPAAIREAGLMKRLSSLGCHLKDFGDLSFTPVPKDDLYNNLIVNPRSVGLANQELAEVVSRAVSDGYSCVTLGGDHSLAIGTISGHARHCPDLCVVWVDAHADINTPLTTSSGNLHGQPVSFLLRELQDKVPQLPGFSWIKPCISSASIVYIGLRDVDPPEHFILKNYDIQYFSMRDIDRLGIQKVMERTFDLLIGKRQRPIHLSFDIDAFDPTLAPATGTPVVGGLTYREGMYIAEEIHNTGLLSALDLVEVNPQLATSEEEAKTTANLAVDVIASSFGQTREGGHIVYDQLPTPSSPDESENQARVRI
Protocol: as §1, §2, §3
Sample were diluted 3:17 in mobile phase solution prior injection.

Row | SMILES | remaining activity at 1 µM ([1]; ARG 100 µM, inhibitor 1 µM) [%] | remaining activity at 10 µM ([1]; ARG 100 µM, inhibitor 10 µM) [%] | remaining activity at 100 µM ([1]; ARG 100 µM, inhibitor 100 µM) [%] | remaining activity at 1000 µM ([1]; ARG 100 µM, inhibitor 1,000 µM) [%] | remaining activity at 1 µM ([1]; ARG 3 mM, inhibitor 1 µM) [%] | remaining activity at 10 µM ([1]; ARG 3 mM, inhibitor 10 µM) [%] | remaining activity at 100 µM ([1]; ARG 3 mM, inhibitor 100 µM) [%] | remaining activity at 1000 µM ([1]; ARG 3 mM, inhibitor 1,000 µM) [%] | remaining activity at 1 µM ([2]; ARG 100 µM, inhibitor 1 µM) [%] | remaining activity at 10 µM ([2]; ARG 100 µM, inhibitor 10 µM) [%] | remaining activity at 100 µM ([2]; ARG 100 µM, inhibitor 100 µM) [%] | remaining activity at 1000 µM ([2]; ARG 100 µM, inhibitor 1,000 µM) [%] | remaining activity at 1 µM ([2]; ARG 2 mM, inhibitor 1 µM) [%] | remaining activity at 10 µM ([2]; ARG 2 mM, inhibitor 10 µM) [%] | remaining activity at 100 µM ([2]; ARG 2 mM, inhibitor 100 µM) [%] | remaining activity at 1000 µM ([2]; ARG 2 mM, inhibitor 1,000 µM) [%] | arginase 1 inhibitor assessment in words [1] | arginase 2 inhibitor assessment in words [2] | further results
1 | [H]/N=C(/NC)NCCC[C@H](N)C(=O)O [L-NMMA, NG-Monomethyl-L-arginine] | 91 ± 6 | 104 ± 11 | 95 ± 6 | 116 ± 1 | 107 ± 11 | 95 ± 9 | 94 ± 8 | 97 ± 11 | 103 ± 2 | 106 ± 1 | 106 ± 9 | 111 ± 4 | 105 ± 4 | 109 ± 8 | 104 ± 3 | 118 ± 4 |  |  | remaining activity at 0.1 µM ([1]; ARG 100 µM, inhibitor 0.1 µM): 95 ± 2%; remaining activity at 0.1 µM ([1]; ARG 3 mM, inhibitor 0.1 µM): 106 ± 15%; remaining activity at 0.1 µM ([2]; ARG 100 µM, inhibitor 0.1 µM): 101 ± 1%; remaining activity at 0.1 µM ([2]; ARG 2 mM, inhibitor 0.1 µM): 96 ± 7%
2 | NCCCCN=C(N)N [AG, agmatine] | 94 ± 7 | 82 ± 5 | 110 ± 24 | 84 ± 8 | 84 ± 13 | 100 ± 3 | 100 ± 8 | 98 ± 13 | 103 ± 4 | 98 ± 7 | 92 ± 6 | 78 ± 5 | 104 ± 4 | 96 ± 3 | 103 ± 3 | 96 ± 3 | poor arginase 1 inhibitors; also recorded: no significant inhibition | poor inhibitors; also recorded: no significant inhibition | remaining activity at 10000 µM ([1]; ARG 100 µM): 72 ± 3%; remaining activity at 10000 µM ([1]; ARG 3 mM): 78 ± 7%; remaining activity at 10000 µM ([2]; ARG 100 µM): 58 ± 1%; remaining activity at 10000 µM ([2]; ARG 2 mM): 87 ± 8%
3 | CN=C(NC)NCCC[C@H](N)C(=O)O [SDMA, NG, N′G-dimethyl-L-arginine dihydrochloride] |  |  |  |  |  |  |  |  |  |  |  |  |  |  |  |  | poor arginase 1 inhibitors | poor arginase inhibitors | % of control activity at the corresponding [Inhibitor] ± SE ([1]; ARG 100 µM, inhibitor 0.1 µM): 96 ± 3%; % of control activity at the corresponding [Inhibitor] ± SE ([1]; ARG 100 µM, inhibitor 1 µM): 113 ± 22%; % of control activity at the corresponding [Inhibitor] ± SE ([1]; ARG 100 µM, inhibitor 10 µM): 104 ± 4%; % of control activity at the corresponding [Inhibitor] ± SE ([1]; ARG 100 µM, inhibitor 100 µM): 106 ± 17%; % of control activity at the corresponding [Inhibitor] ± SE ([1]; ARG 100 µM, inhibitor 1,000 µM): 69 ± 10%; % of control activity at the corresponding [Inhibitor] ± SE ([1]; ARG 3 mM, inhibitor 0.1 µM): 113 ± 16%; % of control activity at the corresponding [Inhibitor] ± SE ([1]; ARG 3 mM, inhibitor 1 µM): 93 ± 5%; % of control activity at the corresponding [Inhibitor] ± SE ([1]; ARG 3 mM, inhibitor 10 µM): 92 ± 2%; % of control activity at the corresponding [Inhibitor] ± SE ([1]; ARG 3 mM, inhibitor 100 µM): 84 ± 1%; % of control activity at the corresponding [Inhibitor] ± SE ([1]; ARG 3 mM, inhibitor 1,000 µM): 73 ± 5%; % of control activity at the corresponding [Inhibitor] ± SE ([2]; ARG 100 µM, inhibitor 0.1 µM): 90 ± 2%; % of control activity at the corresponding [Inhibitor] ± SE ([2]; ARG 100 µM, inhibitor 1 µM): 96 ± 1%; % of control activity at the corresponding [Inhibitor] ± SE ([2]; ARG 100 µM, inhibitor 10 µM): 95 ± 3%; % of control activity at the corresponding [Inhibitor] ± SE ([2]; ARG 100 µM, inhibitor 100 µM): 90 ± 1%; % of control activity at the corresponding [Inhibitor] ± SE ([2]; ARG 100 µM, inhibitor 1,000 µM): 89 ± 1%; % of control activity at the corresponding [Inhibitor] ± SE ([2]; ARG 2 mM, inhibitor 0.1 µM): 96 ± 2%; % of control activity at the corresponding [Inhibitor] ± SE ([2]; ARG 2 mM, inhibitor 1 µM): 100 ± 3%; % of control activity at the corresponding [Inhibitor] ± SE ([2]; ARG 2 mM, inhibitor 10 µM): 107 ± 1%; % of control activity at the corresponding [Inhibitor] ± SE ([2]; ARG 2 mM, inhibitor 100 µM): 102 ± 1%; % of control activity at the corresponding [Inhibitor] ± SE ([2]; ARG 2 mM, inhibitor 1,000 µM): 96 ± 1%
